Source: US20200187499A1, “SUBSTITUTED BENZYL-4-AMINOPICOLINIC ESTERS AND PYRIMIDINO-4-CARBOXYLIC ESTERS, METHODS FOR THE PRODUCTION THEREOF, AND USE THEREOF AS HERBICIDES AND PLANT GROWTH REGULATORS” (Bayer CropScience Aktiengesellschaft, priority 2017, published 2020)

Key:
Type in all cases: in vivo
ABUTH [1] = experiment: Pre-emergence herbicidal action; conditions: Table 2, pre-emergence (PE), 320 g/ha, scored after 3 weeks
In short: (§1)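 Seeds sown in sandy loam and covered; WP or EC formulations sprayed onto the soil surface as aqueous suspension/emulsion at 600–800 l/ha water with 0.2% wetting agent. Greenhouse-grown 3 weeks, then damage scored visually against untreated controls (0% = like control, 100% = dead).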

SETVI [2] = experiment: Pre-emergence herbicidal action; conditions: Table 2, pre-emergence (PE), 320 g/ha, scored after 3 weeks
In short: as §1

AMARE [3] = experiment: Pre-emergence herbicidal action; conditions: Table 2, pre-emergence (PE), 320 g/ha, scored after 3 weeks
In short: as §1

ALOMY = experiment: Pre-emergence herbicidal action; conditions: Table 2, pre-emergence (PE), 320 g/ha, scored after 3 weeks
In short: as §1

ECHCG [4] = experiment: Pre-emergence herbicidal action; conditions: Table 2, pre-emergence (PE), 320 g/ha, scored after 3 weeks
In short: as §1

VIOTR [5] = experiment: Pre-emergence herbicidal action; conditions: Table 2, pre-emergence (PE), 320 g/ha, scored after 3 weeks
In short: as §1

POLCO [6] = experiment: Pre-emergence herbicidal action; conditions: Table 2, pre-emergence (PE), 320 g/ha, scored after 3 weeks
In short: as §1

STEME = experiment: Post-emergence herbicidal action; conditions: Table 5, post-emergence (PO), 320 g/ha, assessed after about 3 weeks
In short: (§2)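 Percent herbicidal activity was judged by eye roughly 3 weeks post-treatment, where 0% matched untreated plants and 100% meant death. Test plants at the one-leaf stage had received a foliar spray of WP- or EC-formulated compound in aqueous form.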

ABUTH [7] = experiment: Post-emergence herbicidal action; conditions: Table 5, post-emergence (PO), 320 g/ha, assessed after about 3 weeks
In short: as §2

PHBPU = experiment: Post-emergence herbicidal action; conditions: Table 5, post-emergence (PO), 320 g/ha, assessed after about 3 weeks
In short: as §2

SETVI [8] = experiment: Post-emergence herbicidal action; conditions: Table 5, post-emergence (PO), 320 g/ha, assessed after about 3 weeks
In short: as §2

AMARE [9] = experiment: Post-emergence herbicidal action; conditions: Table 5, post-emergence (PO), 320 g/ha, assessed after about 3 weeks
In short: as §2

ECHCG [10] = experiment: Post-emergence herbicidal action; conditions: Table 5, post-emergence (PO), 320 g/ha, assessed after about 3 weeks
In short: as §2

VIOTR [11] = experiment: Post-emergence herbicidal action; conditions: Table 5, post-emergence (PO), 320 g/ha, assessed after about 3 weeks
In short: as §2

POLCO [12] = experiment: Post-emergence herbicidal action; conditions: Table 5, post-emergence (PO), 320 g/ha, assessed after about 3 weeks
In short: as §2

SMILES | Herbicidal action against ABUTH (ABUTH [1]) [%] | Herbicidal action against SETVI (SETVI [2]) [%] | Herbicidal action against AMARE (AMARE [3]) [%] | Herbicidal action against ALOMY (ALOMY) [%] | Herbicidal action against ECHCG (ECHCG [4]) [%] | Herbicidal action against VIOTR (VIOTR [5]) [%] | Herbicidal action against POLCO (POLCO [6]) [%] | Herbicidal action against STEME (STEME) [%] | Herbicidal action against ABUTH (ABUTH [7]) [%] | Herbicidal action against PHBPU (PHBPU) [%] | Herbicidal action against SETVI (SETVI [8]) [%] | Herbicidal action against AMARE (AMARE [9]) [%] | Herbicidal action against ECHCG (ECHCG [10]) [%] | Herbicidal action against VIOTR (VIOTR [11]) [%] | Herbicidal action against POLCO (POLCO [12]) [%]
Nc1cc(-c2ccc3ccsc3c2)nc(C(=O)OCc2cccc(F)c2)c1Cl [Example I-10] | 30 | 90 | 100 | 70 | 100 | 40 | 0 | 100 | 100 | 80 | 90 | 100 | 90 | 70 | 100
Nc1cc(-c2ccc3occc3c2)nc(C(=O)OCc2ccc(F)c(F)c2F)c1Cl [Example I-13] | 30 | 100 | 100 | 80 | 90 | 30 | 100 | 100 | 100 | 80 | 90 | 100 | 90 | 100 | 100
Nc1cc(-c2ccc3sccc3c2)nc(C(=O)OCc2ccc(C(F)(F)F)cc2)c1Cl [Example I-16] | 80 | 80 | 80 | 30 | 100 | 30 | 70 | 80 | 100 | 80 | 90 | 100 | 90 | 90 | 90
Nc1cc(-c2ccc3sccc3c2)nc(C(=O)OCc2ccc(F)cc2F)c1Cl [Example I-18] | 40 | 70 | 100 | 30 | 100 | 20 | 10 | 80 | 100 | 80 | 90 | 100 | 100 | 90 | 80
